Tested on: KRAS PDC tumor spheroids (HUVEC+MSC), viability
Assay: Anticancer human tumor 254851-301-R-J1-PDC patient-derived colon carcinoma cell line growth inhibition [KRAS2]
Conditions: for IC50: curve of first compound; for viability, T/C: stronger effect = lower value
How it was run: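 Combination screen of spheroid viability in tumor-cell co-cultures with endothelial (HUVEC) and mesenchymal stem cell stroma. Each agent was tested in half-log dilutions, topping at clinical Cmax or at 10 microM without a known Cmax.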

[1] = second compound 0.1 µM, first compound 0.0316 µM
[2] = second compound 0.1 µM, first compound 0.1 µM
[3] = second compound 0.1 µM, first compound 0.316 µM
[4] = second compound 0.1 µM, first compound 1 µM
[5] = second compound 0.316 µM, first compound 0.0316 µM
[6] = second compound 0.316 µM, first compound 0.1 µM
[7] = second compound 0.316 µM, first compound 0.316 µM
[8] = second compound 0.316 µM, first compound 1 µM
[9] = second compound 1 µM, first compound 0.0316 µM
[10] = second compound 1 µM, first compound 0.1 µM
[11] = second compound 1 µM, first compound 0.316 µM
[12] = second compound 1 µM, first compound 1 µM
[13] = second compound 3.16 µM, first compound 0.0316 µM
[14] = second compound 3.16 µM, first compound 0.1 µM
[15] = second compound 3.16 µM, first compound 0.316 µM
[16] = second compound 3.16 µM, first compound 1 µM
[17] = second compound 10 µM, first compound 0.0316 µM
[18] = second compound 10 µM, first compound 0.1 µM
[19] = second compound 10 µM, first compound 0.316 µM
[20] = second compound 10 µM, first compound 1 µM
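Note: spheroids exposed to compounds for seven days before readout.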
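Throughout, for viability, T/C: 100% = DMSO vehicle control luminescence of the spheroids.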

Row | Structure (SMILES) | IC50 (second compound 0.1 µM) [nM] | IC50 (second compound 0.316 µM) [nM] | IC50 (second compound 1 µM) [nM] | IC50 (second compound 3.16 µM) [nM] | IC50 (second compound 10 µM) [nM] | viability, T/C [1] [%] | viability, T/C [2] [%] | viability, T/C [3] [%] | viability, T/C [4] [%] | viability, T/C [5] [%] | viability, T/C [6] [%] | viability, T/C [7] [%] | viability, T/C [8] [%] | viability, T/C [9] [%] | viability, T/C [10] [%] | viability, T/C [11] [%] | viability, T/C [12] [%] | viability, T/C [13] [%] | viability, T/C [14] [%] | viability, T/C [15] [%] | other results
1 | CC(C)NCC(C(=O)N1CCN(c2ncnc3c2C(C)CC3O)CC1)c1ccc(Cl)cc1 (stereo not given) + COc1cc2nc(C)nc(NC(C)c3cc(N)cc(C(F)(F)F)c3)c2cc1OC1CCOC1 | > 10000 | > 10000 | 2020 | 3160 | 514 | 107 | 99.7 | 99.7 | 91.5 | 101 | 98.2 | 84.3 | 84.1 | 85.2 | 100 | 82.2 | 78.5 | 85.6 | 83.2 | 88.4 | viability, T/C (second compound 0.1 µM, first compound 3.16 µM): 39.8%; viability, T/C (second compound 0.1 µM, first compound 10 µM): 75.7%; viability, T/C (second compound 0.316 µM, first compound 3.16 µM): 31.1%; viability, T/C (second compound 0.316 µM, first compound 10 µM): 71.4%; viability, T/C (second compound 1 µM, first compound 3.16 µM): 32.2%; viability, T/C (second compound 1 µM, first compound 10 µM): 13.7%; viability, T/C [16]: 44.5%; viability, T/C (second compound 3.16 µM, first compound 3.16 µM): 32.5%; viability, T/C (second compound 3.16 µM, first compound 10 µM): 75.1%; viability, T/C [17]: 75.3%; viability, T/C [18]: 82%; viability, T/C [19]: 56.1%; viability, T/C [20]: 41.2%; viability, T/C (second compound 10 µM, first compound 3.16 µM): 15.5%; viability, T/C (second compound 10 µM, first compound 10 µM): 29.4%
2 | CCN1CCN(Cc2ccc(Nc3ncc(F)c(-c4cc(F)c5nc(C)n(C(C)C)c5c4)n3)nc2)CC1 + COc1cc2nc(C)nc(NC(C)c3cc(N)cc(C(F)(F)F)c3)c2cc1OC1CCOC1 | 573 | 578 | 549 | 120 | 66.6 | 96 | 80.6 | 66.2 | 35.7 | 92.2 | 72.2 | 67.9 | 36.2 | 86.7 | 76.8 | 63.1 | 36.3 | 55.3 | 49.9 | 43.3 | viability, T/C (second compound 0.1 µM, first compound 0.00316 µM): 97.6%; viability, T/C (second compound 0.1 µM, first compound 0.01 µM): 98.1%; viability, T/C (second compound 0.316 µM, first compound 0.00316 µM): 93.2%; viability, T/C (second compound 0.316 µM, first compound 0.01 µM): 92.6%; viability, T/C (second compound 1 µM, first compound 0.00316 µM): 90.3%; viability, T/C (second compound 1 µM, first compound 0.01 µM): 88.9%; viability, T/C (second compound 3.16 µM, first compound 0.00316 µM): 63.5%; viability, T/C (second compound 3.16 µM, first compound 0.01 µM): 70%; viability, T/C [16]: 26%; viability, T/C (second compound 10 µM, first compound 0.00316 µM): 83.2%; viability, T/C (second compound 10 µM, first compound 0.01 µM): 74.5%; viability, T/C [17]: 69.7%; viability, T/C [18]: 39.1%; viability, T/C [19]: 17.8%; viability, T/C [20]: 7.16%

Reference: PubChem BioAssay AID1963868 (Molecular Pharmacology Branch, DTP, NCI, 2024)
